Data published in patent publication US20110263694A1, “Use of Xanthone Derivatives as a Medicament for Cancer” (MUSEUM NATIONAL D'HISTOIRE NATURELLE, priority 2008, published 2011).

What was measured:
normal PBMC = assay: MTT cytotoxicity on normal PBMC; assay type: cell-based, human; conditions: 5 or 10 μg/ml, 48 hours; FIG. 5B
Procedure: (§1) FIG. 5: The effect of the compounds M1, M2, M4, M5 and M6 on the viability and apoptosis of normal lymphocytes was evaluated as indicated in the Examples section. A/ PBMC isolated from the blood of normal volunteers were incubated at 2×10^6/ml for 48 hours in the presence of medium alone (grey bar) or containing 1 μg/ml (black bar) or 10 μg/ml (slashed bars) of the different compounds. At the end of the incubation time, the percentage of enrichment in cytoplasmic nucleosomes was evaluated as indicated in the Examples Section. PBMC (A) and purified B lymphocytes (C) from normal blood donors were incubated for 48 hours with medium alone (grey bar) or containing 5 μg/ml (black bar) or 10 μg/ml (slashed bar) of the selected reagents M1, M2, M4 and M6. Viability was estimated after labelling the cells with a 5 hours pulse of MTT and determination of the absorbance at 540 nm as indicated in the Examples Section.
(§2) Leukemia cells from B-CLL patients were adjusted at 2×10^6/ml and 200 μl aliquots were distributed in triplicate samples in the wells of a 96-well microtitration plate and cultured in the absence or presence of the various reagents. After 18 hours of incubation at 37° C. in a humidified atmosphere containing 5% CO2, 20 μl of a 5 mg/ml solution of MTT (Sigma, St Louis, Mo., USA) were added to the wells for an additional 6 hours incubation. The microplates were centrifuged at 400×g for 20 min, the supernatants carefully discarded and 200 μl of DMSO were added to the wells to dissolve the precipitates of formazan. The optical density was measured with the use of a microplate reader (Victor-2, Wallac, Perkin Elmer, Norwalk, Mont., USA) at the wavelength of 540 nm.
(§3) Blood samples from healthy donors were obtained from the Institut Francais du Sang as residues from platelet preparations. The healthy blood donors were under 60 years old, according to the French legislation, and therefore they could not be exactly age-matched with the B-CLL patients. PBMC were prepared as described elsewhere (Zhao et al, Blood 1998; 92: 1031-1043) and normal B-lymphocytes were purified by positive selection on anti-CD19-coated magnetic beads according to the specifications of the manufacturer (Dynal, Oslo, Norway) (Kern et al, Blood 2004; 103: 679-688). Their purity usually ranged from 92% to 95%, as estimated by labelling with an anti-CD20-phycoerythrin (PE) antibody, and monocyte contamination never exceeded 2% (Kern et al, Blood 2004; 103: 679-688).

B-CLL cells = assay: MTT viability of freshly isolated B-CLL cells; assay type: cell-based, human; conditions: FIG. 3, 6 B-CLL patients
Procedure: FIG. 3: The effect of the molecules M1, M2, M4, M5 and M6 on the viability of B-CLL cells was determined. Tumour cells freshly isolated from B-CLL patients were suspended at 2×10^6/ml in complete RPMI-1640 medium and incubated for 48 hours in the presence or absence of either 1 μg/ml (black bars) or 10 μg/ml (gray bars) of the various molecules. MTT was incorporated into the cells during the last 5 hours of incubation and the viability was measured by recording the formation of the formazan precipitate as described in the Examples section. The results are expressed as the percentage of the viability of the treated cells in comparison with control cells incubated with medium alone taken as 100% and represent the mean±SE of 6 B-CLL patients.
Blood samples from B-CLL patients were obtained from the Haematology Department of Hôtel-Dieu hospital (Paris, France) after written informed consent, in accordance with the rules and tenets of the revised Helsinki protocol. Diagnosis was established according to standard clinical and international CLL workshop criteria, including lymphocyte morphology and co-expression of CD5, CD20 and CD23 antigens. A total of 12 patients (6 men and 6 women) with an age ranging 50-84 years (mean±SD: 68±8.8 years) were selected and the time since diagnosis varied between 0 (newly diagnosed patients) and 10 years. The patients were randomly chosen for each type of experiment inasmuch as CD38 and ZAP-70 expression, cytogenetic analysis and mutational VH status were only available for a fraction of them, thus hampering a risk-group analysis. The leukemia B-cells were isolated with purity greater than 96%, as previously described (Zhao et al, Blood 1998; 92: 1031-1043). All the experiments were performed with freshly purified B-CLL leukemia cells.
M1, M2, M4, M5 and M6 were thus tested for their possible action on the viability of these leukemia cells by the MTT assay that relies on the integrity of the mitochondrial succinyl dehydrogenase.
as §2

histamine H1 receptor = conditions: Chairungsrilerd et al 1996; cited from earlier work
[1] = test system: human promyelocytic leukemia HL-60 cell line; conditions: Matsumoto et al 2003; cited from earlier work
[2] = test system: human colon cancer DLD-1 cells; conditions: Matsumoto 2005; cited from earlier work
ESKOL cells = assay: Annexin V-FITC labelling of ESKOL cells (phosphatidylserine externalisation, flow cytometry); assay type: cell-based, human; conditions: 1 μg/ml, 24 hours
Text: The induction of apoptosis was further confirmed by assessing the percentage of cells expressing phosphatidylserine at the outer leaflet of the plasma membrane by flow cytometry.
The phosphatidylserine (PS) externalisation, a membrane marker of cells undergoing apoptosis, was quantified by specific binding of FITC-conjugated annexin V (Bender Medsystems, Vienna, Austria), with or without simultaneous labelling with propidium iodide (PI), according to a modification of the technique described by Koopman (Koopman et al, Blood 1994; 84:1415-1420). The percentages of annexin V-FITC positive and PI negative cells were determined by cytometry on an EPICS Altra flow cytometer (Beckman Coulter).
The ESKOL cells (10^6/ml) were cultured in the absence (C=control) or the presence of 1 μg/ml of the various Allanblackia molecules. After 24 hours of incubation, the percentage of cells labelled with Annexin V-FITC was measured by flow cytometry as previously indicated. Results are expressed after subtraction of the value for control unstimulated cells. P values were estimated by Kolmogorov-Smirnov analysis using the Statview software.

purified B-lymphocytes = assay: MTT cytotoxicity on purified normal B-lymphocytes; assay type: cell-based, human; conditions: 5 or 10 μg/ml, 48 hours; FIG. 5C
Procedure: as §1, §2, §3

In the case of `COc1c(O)cc2oc3cc(O)c(CC=C(C)C)c(O)c3c(=O)c2c1CC=C(C)C` [M2, α-mangostin], the “cytotoxic effect on normal PBMC (MTT)” value (normal PBMC) is reported as “somewhat sensitive”, the “viability of B-CLL cells (MTT)” value (B-CLL cells; 1 μg/ml) is reported as “no significant effect” and the “viability of B-CLL cells (MTT)” value (B-CLL cells; 10 μg/ml) is reported as “marked reduction in the viability”. The “histamine H1 receptor antagonism” value (histamine H1 receptor) was “histamine H1 receptor antagonist”, the “apoptosis induction in HL-60 cell line” value [1] was “induces apoptosis” and the “cell-cycle arrest and apoptosis in DLD-1 cells” value [2] was “induces cell-cycle arrest and apoptosis”. The “increase in the percentage of Annexin V positive ESKOL cells (in words)” value (ESKOL cells) was “significant increase”, the “% Annexin V+ cells” value (ESKOL cells; ESKOL cells, after subtraction of control value) was 15.0% and the “cytotoxic effect on purified normal B-lymphocytes (MTT)” value (purified B-lymphocytes) was “somewhat sensitive”.
